Results taken from ChEMBL document CHEMBL2010660, “Synthesis, SAR and biological evaluation of 1,6-disubstituted-1H-pyrazolo[3,4-d]pyrimidines as dual inhibitors of Aurora kinases and CDK1” (Bioorg Med Chem Lett, 2012).
Active and inactive are the calls of the source. The rule behind the calls is not given here.

Tests used:
[1] = target: Cyclin-dependent kinase 1 (Homo sapiens, UniProt P06493); experiment: Inhibition of CDK1
[2] = tested on: HCT-116; experiment: Cell cycle arrest in human HCT116 cells assessed as minimum concentration required for G2/M versus G1 peak ratio over 2; format: functional
[3] = tested on: HCT-116; experiment: Cytotoxicity against human HCT116 cells after 5 days by MTS assay; format: functional, cell-based; details: HCT-116, 120 h
[4] = target: T1, Aurora kinase A (Homo sapiens, UniProt O14965); experiment: Inhibition of aurora A kinase
T1 sequence (O14965 whole entry): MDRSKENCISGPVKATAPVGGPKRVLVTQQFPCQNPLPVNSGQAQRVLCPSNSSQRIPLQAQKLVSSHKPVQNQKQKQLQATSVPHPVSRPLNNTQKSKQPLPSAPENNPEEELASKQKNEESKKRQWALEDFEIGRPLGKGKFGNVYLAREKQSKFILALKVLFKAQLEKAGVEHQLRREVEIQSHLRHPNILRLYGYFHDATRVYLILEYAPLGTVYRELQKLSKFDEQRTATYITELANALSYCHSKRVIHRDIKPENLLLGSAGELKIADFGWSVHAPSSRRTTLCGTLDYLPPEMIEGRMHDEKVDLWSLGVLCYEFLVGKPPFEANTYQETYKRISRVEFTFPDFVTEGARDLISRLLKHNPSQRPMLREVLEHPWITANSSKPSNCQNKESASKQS

[5] = target: T2, Aurora kinase B (Homo sapiens, UniProt Q96GD4); experiment: Inhibition of aurora B kinase
T2 sequence (Q96GD4 whole entry): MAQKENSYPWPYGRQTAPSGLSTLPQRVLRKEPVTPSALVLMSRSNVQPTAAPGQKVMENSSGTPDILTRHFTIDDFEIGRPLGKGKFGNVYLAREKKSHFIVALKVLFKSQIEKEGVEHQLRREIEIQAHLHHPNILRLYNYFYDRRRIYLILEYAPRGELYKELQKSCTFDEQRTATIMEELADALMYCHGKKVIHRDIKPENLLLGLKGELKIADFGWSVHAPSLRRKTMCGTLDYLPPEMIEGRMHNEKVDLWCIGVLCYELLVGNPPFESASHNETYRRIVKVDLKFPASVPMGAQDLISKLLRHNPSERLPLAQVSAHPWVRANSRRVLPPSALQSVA

[6] = Metabolic stability in mouse liver microsome assessed as ratio of clearance to hepatic blood flow; format: ADME; details: liver microsomes, read-out: QH
[7] = tested on: Mus musculus; experiment: Inhibition of aurora A in mouse assessed as increase in histone H3 phosphorylation at 25 mg/kg, ip measured after 9 hrs; format: functional, organism-based; set-up: dose 25 mg/kg
[8] = target: T3, Aurora kinase A (Homo sapiens) (UniProt O14965); experiment: Inhibition of aurora A kinase phosphorylation in human K562 cells at 0.003 to 1 uM by Western blot analysis; format: cell-based
T3 sequence (whole entry): T1 sequence (O14965 whole entry)

[9] = Toxicity in human BMNC assessed as granulocyte/monocyte colony forming units ratio after 14 days by microscopic analysis; details: 336 h
[10] = target: T2, Aurora kinase B; experiment: Inhibition of aurora B kinase phosphorylation in human K562 cells at 0.003 to 1 uM by Western blot analysis; format: cell-based
[11] = tested on: Rattus norvegicus; experiment: Half life in rat at 4 mg/kg, iv; format: ADME, organism-based; set-up: dose 4 mg/kg, route intravenous; details: in vivo
[12] = tested on: Mus musculus; experiment: Apparent volume of distribution in mouse at 25 mg/kg, ip; format: ADME, organism-based; set-up: dose 25 mg/kg, route intraperitoneal; details: in vivo
[13] = tested on: HCT-116; experiment: Antitumor activity against human HCT116 cells xenografted in nu/nu mouse assessed as tumor growth inhibition at 12.5 to 40 mg/kg, ip qd for 21 days; format: functional; details: dose mg/kg 12.5-40; route intraperitoneal
[14] = tested on: Mus musculus; experiment: Inhibition of aurora A kinase in mouse assessed as increase in histone H3 phosphorylation at 25 mg/kg, ip measured after 6 hrs; format: functional, organism-based; set-up: dose 25 mg/kg
[15] = AUC in rat at 4 mg/kg, iv; format: ADME, organism-based; set-up: dose 4 mg/kg, route intravenous; details: plasma
[16] = tested on: Mus musculus; experiment: Toxicity in nu/nu mouse xenografted with human HCT116 cells assessed as weight loss at 12.5 to 40 mg/kg, ip qd for 21 days; format: organism-based, HCT-116; set-up: dose 12.5-40 mg/kg, route intraperitoneal; details: in vivo, 504 h
[17] = tested on: Mus musculus; experiment: Inhibition of CDK1 in mouse serum assessed as decrease in histone H1 phosphorylation at 25 mg/kg, ip measured after 2 hrs; format: functional; details: route intraperitoneal
[18] = tested on: Mus musculus; experiment: Toxicity in nu/nu mouse xenografted with human HCT116 cells assessed as hunched posture at 12.5 to 40 mg/kg, ip qd for 21 days; format: organism-based, HCT-116; set-up: dose 12.5-40 mg/kg, route intraperitoneal; details: in vivo, 504 h
[19] = tested on: Mus musculus; experiment: Inhibition of CDK1 in mouse serum assessed as decrease in histone H3 phosphorylation at 25 mg/kg, ip measured after 2 hrs; format: functional; details: route intraperitoneal
[20] = tested on: Mus musculus; experiment: Toxicity in nu/nu mouse xenografted with human HCT116 cells assessed as reluctance to move at 12.5 to 40 mg/kg, ip qd for 21 days; format: organism-based, HCT-116; set-up: dose 12.5-40 mg/kg, route intraperitoneal; details: in vivo, 504 h
[21] = tested on: Mus musculus; experiment: Toxicity in nu/nu mouse xenografted with human HCT116 cells assessed as mortality at 12.5 to 40 mg/kg, ip qd for 21 days; format: organism-based, HCT-116; set-up: dose 12.5-40 mg/kg, route intraperitoneal; details: in vivo, 504 h
[22] = Half life in mouse at 25 mg/kg, ip; format: ADME, organism-based; set-up: dose 25 mg/kg, route intraperitoneal; details: in vivo
[23] = AUC in mouse at 25 mg/kg, ip; format: ADME, organism-based; set-up: dose 25 mg/kg, route intraperitoneal; details: plasma
[24] = Clearance in mouse at 25 mg/kg, ip; format: ADME, organism-based; set-up: dose 25 mg/kg, route intraperitoneal; details: in vivo
[25] = tested on: Rattus norvegicus; experiment: Apparent volume of distribution in rat at 4 mg/kg, iv; format: ADME, organism-based; set-up: dose 4 mg/kg, route intravenous; details: in vivo

Chain of Cyclin-dependent kinase 1 (P06493 whole entry): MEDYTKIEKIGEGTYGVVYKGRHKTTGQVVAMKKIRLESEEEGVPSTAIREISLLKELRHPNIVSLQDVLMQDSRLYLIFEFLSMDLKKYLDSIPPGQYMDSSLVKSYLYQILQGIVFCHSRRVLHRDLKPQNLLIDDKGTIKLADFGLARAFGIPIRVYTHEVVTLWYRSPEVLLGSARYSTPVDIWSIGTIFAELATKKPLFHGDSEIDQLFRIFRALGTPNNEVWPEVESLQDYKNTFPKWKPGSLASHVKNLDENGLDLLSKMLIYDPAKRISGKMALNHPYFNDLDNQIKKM

Compound | IC50 [1] [µM] | Activity [2] [µM] | IC50 [3] [µM] | IC50 [4] [µM] | IC50 [5] [µM] | hepatic extraction ratio [6] | further results
Cn1cc(Nc2ncc3cnn([C@@H]4C[C@H]5C[C@H]5C4)c3n2)cc1C(=O)N1CCC[C@H]1CO | 0.01 | 0.01 | 0.018 | 0.004 | 0.003 |  | 
CN(C)C(=O)[C@@H]1CCCN1C(=O)c1cc(Nc2ncc3cnn([C@@H]4C[C@H]5C[C@H]5C4)c3n2)cn1C | 1.7 | 0.1 | 0.16 | 0.019 | 0.004 |  | 
COC[C@H]1CCCN1C(=O)c1cc(Nc2ncc3cnn([C@@H]4C[C@H]5C[C@H]5C4)c3n2)cn1C | 0.15 | 0.065 | 0.06 | 0.016 | 0.006 |  | 
Cn1cc(Nc2ncc3cnn([C@@H]4CC[C@H]5CCC[C@H]54)c3n2)cc1C(N)=O | 0.013 | 0.1 | 0.066 | 0.013 | 0.022 | 0.85 | 
CNC[C@@H]1CCCN1C(=O)c1cc(Nc2ncc3cnn([C@@H]4C[C@H]5C[C@H]5C4)c3n2)cn1C | 1.2 | 0.3 | 0.15 | 0.08 | 0.05 |  | 
Cn1cc(Nc2ncc3cnn([C@@H]4C[C@H]5C[C@H]5C4)c3n2)cc1C(=O)N1CCC[C@@H]1CO | 0.15 | 0.1 | 0.17 | 0.1 | 0.036 |  | 
Cn1cc(Nc2ncc3cnn(C4CCC5(CC5)C4)c3n2)cc1C(N)=O (stereo not given) | 0.05 | 0.65 | 0.29 | 0.15 | 0.019 | 0.89 | 
Cn1cc(Nc2ncc3cnn([C@@H]4C[C@H]5C[C@H]5C4)c3n2)cc1C(=O)N1CCCC1 | 0.041 | 0.1 | 0.095 | 0.017 | 0.04 |  | 
C[C@@H]1CCCN1C(=O)c1cc(Nc2ncc3cnn([C@@H]4C[C@H]5C[C@H]5C4)c3n2)cn1C | 0.04 | 0.03 | 0.13 | 0.002 | 0.004 |  | 
Cn1cc(Nc2ncc3cnn(C4CCC5(CC4)CC5)c3n2)cc1C(N)=O | 0.019 | 0.3 | 0.12 | 0.04 | 0.005 | 0.89 | 
O=C1N=C(NCc2cccs2)S/C1=C\c1ccc2ncccc2c1 |  |  | 3.2 |  |  |  | 
CC(C)n1ncc2cnc(Nc3cc(C(N)=O)n(C)c3)nc21 | 0.16 | 1 | 1 | 0.23 | 0.038 | 0.27 | 
Cn1cc(Nc2ncc3cnn([C@H]4CC[C@H]5CCC[C@H]54)c3n2)cc1C(N)=O | 0.016 | 0.3 | 0.23 | 0.021 | 0.012 | 0.76 | 
Cn1cc(Nc2ncc3cnn([C@@H]4C[C@H]5C[C@H]5C4)c3n2)cc1C(=O)N1CCC[C@H]1CN1CCOCC1 | 0.021 | 0.017 | 0.008 | 0.003 | 0.004 |  | 
Cn1cc(Nc2ncc3cnn([C@@H]4C[C@H]5C[C@H]5C4)c3n2)cc1C(N)=O | 0.024 | 0.1 | 0.079 | 0.017 | 0.004 | 0.69 | 
Cn1cc(Nc2ncc3cnn([C@@H]4C[C@H]5C[C@H]5C4)c3n2)cc1C(=O)N1CCC[C@@H]1CN1CCOCC1 | 0.39 | 0.03 | 0.024 | 0.0015 | 0.004 |  | 
Cn1cc(Nc2ncc3cnn(C4C5CC6CC(C5)CC4C6)c3n2)cc1C(N)=O (stereo not given) | 0.038 | 0.3 | 0.27 | 0.025 | 0.018 | 0.89 | 
Cn1cc(Nc2ncc3cnn(C4CCCCCC4)c3n2)cc1C(N)=O | 0.015 | 0.23 | 0.14 | 0.087 | 0.023 | 0.87 | 
O=C(O)c1ccc(Nc2ncc3c(n2)-c2ccc(Cl)cc2C(c2c(F)cccc2F)=NC3)cc1 [MLN-8054] |  |  | 0.69 |  |  |  | 
Cn1cc(Nc2ncc3cnn(C4CCC(C)(C)CC4)c3n2)cc1C(N)=O | 0.024 | 0.1 | 0.1 | 0.03 | 0.005 | 0.92 | 
Cn1cc(Nc2ncc3cnn([C@@H]4C[C@H]5C[C@H]5C4)c3n2)cc1C(=O)N1CCC[C@H]1C(N)=O | 0.01 | 0.03 | 0.047 | 0.006 | 0.004 |  | 
Cn1cc(Nc2ncc3cnn([C@@H]4C[C@H]5C[C@H]5C4)c3n2)cc1C(=O)N1CCC[C@H]1CN1CCCC1 | 0.047 | 0.03 | 0.011 | 0.01 | 0.005 |  | 
COC[C@@H]1CCCN1C(=O)c1cc(Nc2ncc3cnn([C@@H]4C[C@H]5C[C@H]5C4)c3n2)cn1C | 0.022 | 0.03 | 0.01 | 0.004 | 0.005 |  | inhibition [7]: Active; inhibition [8]: Active; Ratio [9]: 32; inhibition [10]: Active; t1/2 [11]: 5 h; Vz [12]: 3 L/kg; TGI [13]: 30%; inhibition [14]: Active; AUC [15]: 1230 ng·h/mL; Activity [16]: 2%; inhibition in vivo at 25 mg/kg [17]: 60%; Activity [18]: Toxic; inhibition in vivo at 25 mg/kg [19]: 90%; Activity [20]: Toxic; Activity [21]: Toxic; half-life [22]: 1 h; AUC [23]: 6420 ng·h/mL; CL/F [24]: 65 mL/min/kg; Vz [25]: 5 L/kg
